Measured values from BindingDB's records for doi:10.1002/cbic.200400084 (Laboratorium FÜR Organische Chemie, 2004).

The molecules below were run against T1, Catechol O-methyltransferase (Rattus norvegicus, UniProt P22734) (assay: Radiochemical Assay). Details: 37 °C.
T1 sequence (P22734 whole entry): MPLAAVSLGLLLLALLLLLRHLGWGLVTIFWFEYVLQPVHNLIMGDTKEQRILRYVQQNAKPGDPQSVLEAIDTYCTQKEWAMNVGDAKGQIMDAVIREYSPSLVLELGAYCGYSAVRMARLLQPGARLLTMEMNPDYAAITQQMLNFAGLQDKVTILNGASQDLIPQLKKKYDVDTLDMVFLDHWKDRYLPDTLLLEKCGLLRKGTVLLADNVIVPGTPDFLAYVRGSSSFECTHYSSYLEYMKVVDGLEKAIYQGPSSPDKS
Description: The binding affinity of the inhibitors towards Catechol O-methyltransferase in the presence of Mg2+ ions were determined by using a radiochemical assay.

| Structure (SMILES) | IC50 [nM] |
| --- | --- |
| Cc1ccc(Cc2cc(O)c(O)c(C(=O)NC/C=C/[C@H]3O[C@@H](n4cnc5c(N)ncnc54)[C@H](O)C3O)c2)cc1 (stereo partly drawn) [Bi-substrate Inhibitor, 1q] | 608 |
| Nc1ncnc2c1ncn2[C@@H]1O[C@H](/C=C/CNC(=O)c2cc(-c3nccs3)cc(O)c2O)[C@@H](O)[C@H]1O [Bi-substrate Inhibitor, 1e] | 27 |
| Nc1ncnc2c1ncn2[C@@H]1O[C@H](/C=C/CNC(=O)c2cc(Br)cc(O)c2O)[C@@H](O)[C@H]1O [Bi-substrate Inhibitor, 1f] | 28 |
| Cc1ccc(-c2cc(O)c(O)c(C(=O)NC/C=C/[C@H]3O[C@@H](n4cnc5c(N)ncnc54)[C@H](O)[C@@H]3O)c2)cc1 [Bi-substrate Inhibitor, 1c] | 23 |
| Cc1ccc(C(=O)c2cc(O)c(O)c(C(=O)NC/C=C/[C@H]3O[C@@H](n4cnc5c(N)ncnc54)[C@H](O)[C@@H]3O)c2)cc1 [Bi-substrate Inhibitor, 1i] | 34 |
| Nc1ncnc2c1ncn2[C@@H]1O[C@H](/C=C/CNC(=O)c2cc(C(=O)c3ccncc3)cc(O)c2O)[C@@H](O)[C@H]1O [Bi-substrate Inhibitor, 1l] | 42 |
| Nc1ncnc2c1ncn2[C@@H]1O[C@H](/C=C/CNC(=O)c2cc(-c3ccc(F)cc3)cc(O)c2O)[C@@H](O)[C@H]1O [Bi-substrate Inhibitor, 1b] | 21 |
| Nc1ncnc2c1ncn2[C@@H]1O[C@H](/C=C/CNC(=O)c2cc(C(F)(F)F)cc(O)c2O)[C@@H](O)[C@H]1O [Bi-substrate Inhibitor, 1j] | 35 |
| Cc1ccc(S(=O)(=O)c2cc(O)c(O)c(C(=O)NC/C=C/[C@H]3O[C@@H](n4cnc5c(N)ncnc54)[C@H](O)C3O)c2)cc1 (stereo partly drawn) [Bi-substrate Inhibitor, 1p] | 213 |
| Nc1ncnc2c1ncn2[C@@H]1O[C@H](/C=C/CNC(=O)c2cc(Cl)cc(O)c2O)[C@@H](O)[C@H]1O [Bi-substrate Inhibitor, 1m] | 44 |
| CN(C)C(=O)c1cc(O)c(O)c(C(=O)NC/C=C/[C@H]2O[C@@H](n3cnc4c(N)ncnc43)[C@H](O)C2O)c1 (stereo partly drawn) [Bi-substrate Inhibitor, 1s] | 2000 |
| Nc1ncnc2c1ncn2[C@@H]1O[C@H](/C=C/CNC(=O)c2cc(C(=O)C(F)(F)F)cc(O)c2O)[C@@H](O)[C@H]1O [Bi-substrate Inhibitor, 1k] | 39 |

Further molecules by falling IC50, results first:

| IC50 [nM] | Structure (SMILES) |
| --- | --- |
| 2600 | Nc1ncnc2c1ncn2[C@@H]1O[C@H](/C=C/CNC(=O)c2cccc(O)c2O)C(O)[C@H]1O (stereo partly drawn) [Bi-substrate Inhibitor, 1t] |
| 97 | CN(C)C(=O)/C=C/c1cc(O)c(O)c(C(=O)NC/C=C/[C@H]2O[C@@H](n3cnc4c(N)ncnc43)[C@H](O)[C@@H]2O)c1 [Bi-substrate Inhibitor, 1o] |
| 83 | Nc1ncnc2c1ncn2[C@@H]1O[C@H](/C=C/CNC(=O)c2cc(C(=O)C3CCCCC3)cc(O)c2O)[C@@H](O)[C@H]1O [Bi-substrate Inhibitor, 1n] |
| 29 | N#Cc1cc(O)c(O)c(C(=O)NC/C=C/[C@H]2O[C@@H](n3cnc4c(N)ncnc43)[C@H](O)[C@@H]2O)c1 [Bi-substrate Inhibitor, 1h] |
| 23 | Nc1ncnc2c1ncn2[C@@H]1O[C@H](/C=C/CNC(=O)c2cc(-c3ccncc3)cc(O)c2O)[C@@H](O)[C@H]1O [Bi-substrate Inhibitor, 1d] |
| 9 | Nc1ncnc2c1ncn2[C@@H]1O[C@H](/C=C/CNC(=O)c2cc([N+](=O)[O-])cc(O)c2O)[C@@H](O)[C@H]1O [Bi-substrate Inhibitor, 1a] |
